Like-named read-outs stand apart in the source and are kept apart here.
Key:
[1] = molecular target: hERG potassium channel (Homo sapiens (Human), UniProt Q12809); assay: hERG assay (IC50), automated PatchXpress in hERG-expressing HEK-293 cells; type: cell-based; details: 0.01-100 μM, 5 minutes after adding test article; for IC20 at 5 min: human, HEK-293 cells that express hERG
Method: The in vitro potential for hERG potassium channel current inhibition was assessed according to the study site standard procedures (ChanTest, Cleveland, Ohio). In brief, hERG inhibition (% max) was determined in hERG-expressing HEK-293 cells (n=2/concentration) using the automated PatchXpress 7000A system (Molecular Devices, Sunnyvale, Calif.) for 5 minutes after adding the test article.

[2] = molecular target: PIM1 (Homo sapiens (Human), UniProt P11309); assay: biochemical; type: biochemical; details: 20 pM PIM1, 1 μM FAM-peptide, 10 μM ATP, 90 minutes at room temperature; read-out: PIM1 LC3K (KI)
Chain of PIM1 (P11309 whole entry): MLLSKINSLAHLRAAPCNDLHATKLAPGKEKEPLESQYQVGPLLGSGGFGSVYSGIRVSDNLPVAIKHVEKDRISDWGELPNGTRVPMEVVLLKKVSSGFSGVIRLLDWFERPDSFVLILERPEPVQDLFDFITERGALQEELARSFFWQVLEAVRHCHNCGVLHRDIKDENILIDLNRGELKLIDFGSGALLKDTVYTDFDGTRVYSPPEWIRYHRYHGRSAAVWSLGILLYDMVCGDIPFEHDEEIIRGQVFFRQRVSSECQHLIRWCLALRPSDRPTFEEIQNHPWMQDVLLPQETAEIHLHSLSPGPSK

[3] = tested on: BaF3 PIM1 cells; assay: In vitro cell proliferation, BaF3 transfected with PIM1; type: cell-based, murine;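 also: murine IL-3-dependent pro-B BaF3 cells transfected with PIM1, compound exposure overnight at 37 °C under 5% CO2, viability read as luminescence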
[4] = tested on: MM1.S (multiple myeloma) cells; assay: In vitro cell proliferation, MM1.S multiple myeloma cells; type: cell-based; details: read-out: Prolif MM1S ATP (EC50);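 also: cells cultured in RPMI with 10% FBS and 2 mM L-Glutamine, seeded in 384-well plates, exposed to compound, cell viability measured by luminescence after CellTiter-Glo addition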
Method: BaF3 parental line was obtained from the DSMZ repository. […] Media for BaF3 parental line contained RPMI, 10% FBS, 2 mM L-Glutamine, 2 ng/mL mIL-3. Media for BaF3 PIM1 & 2 lines contained RPMI, 10% FBS, 2 mM L-Glutamine, 250 μg/mL. Media for MM1.S (multiple myeloma cells) line contained RPMI, 10% FBS, 2 mM L-Glutamine.
BaF3, a murine interleukin-3 dependent pro-B cell line, parental cells, BaF3 PIM1 cells, BaF3 PIM2 cells, and MM1.S (multiple myeloma) cells were seeded at 2 k/well, 5 k/well, 5 k/well, and 10 k/well respectively, in a 384-well plate, at 45 μL/well. Test compound was added at 5 μL/well. BaF3 cells (parental and transfected) were incubated overnight, while MM1.S cells were incubated for 72 hours at 37° C., 5% CO2. CELL TITER GLO® Reagent (Promega) was added at 50 μL/well, the plates were incubated for 30 minutes, and their luminescence read on an HT Analyst. IC50/EC50 values for the test compound were calculated.

[5] = tested on: BaF3 parental cells; assay: In vitro cell proliferation, BaF3 parental line + IL3; type: cell-based, murine; details: Mus musculus;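 also: BaF3 parental cells are murine IL-3 dependent pro-B cells grown with 2 ng/mL mIL-3, 384-well format, viability read by luminescence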
[6] = Mus musculus, BaF3, read-out: Prolif BaF3 PIM1 (IC50), BaF3 PIM1 cells, incubated overnight, CELL TITER GLO
[7] = Homo sapiens, MM1.S, 72 h, MM1.S cells, 72 hours, CELL TITER GLO
[8] = BaF3, BaF3 parental, mIL-3, incubated overnight, CELL TITER GLO, read-out: Prolif BaF3 IL3 (IC50)

Chain of hERG potassium channel (Q12809 whole entry): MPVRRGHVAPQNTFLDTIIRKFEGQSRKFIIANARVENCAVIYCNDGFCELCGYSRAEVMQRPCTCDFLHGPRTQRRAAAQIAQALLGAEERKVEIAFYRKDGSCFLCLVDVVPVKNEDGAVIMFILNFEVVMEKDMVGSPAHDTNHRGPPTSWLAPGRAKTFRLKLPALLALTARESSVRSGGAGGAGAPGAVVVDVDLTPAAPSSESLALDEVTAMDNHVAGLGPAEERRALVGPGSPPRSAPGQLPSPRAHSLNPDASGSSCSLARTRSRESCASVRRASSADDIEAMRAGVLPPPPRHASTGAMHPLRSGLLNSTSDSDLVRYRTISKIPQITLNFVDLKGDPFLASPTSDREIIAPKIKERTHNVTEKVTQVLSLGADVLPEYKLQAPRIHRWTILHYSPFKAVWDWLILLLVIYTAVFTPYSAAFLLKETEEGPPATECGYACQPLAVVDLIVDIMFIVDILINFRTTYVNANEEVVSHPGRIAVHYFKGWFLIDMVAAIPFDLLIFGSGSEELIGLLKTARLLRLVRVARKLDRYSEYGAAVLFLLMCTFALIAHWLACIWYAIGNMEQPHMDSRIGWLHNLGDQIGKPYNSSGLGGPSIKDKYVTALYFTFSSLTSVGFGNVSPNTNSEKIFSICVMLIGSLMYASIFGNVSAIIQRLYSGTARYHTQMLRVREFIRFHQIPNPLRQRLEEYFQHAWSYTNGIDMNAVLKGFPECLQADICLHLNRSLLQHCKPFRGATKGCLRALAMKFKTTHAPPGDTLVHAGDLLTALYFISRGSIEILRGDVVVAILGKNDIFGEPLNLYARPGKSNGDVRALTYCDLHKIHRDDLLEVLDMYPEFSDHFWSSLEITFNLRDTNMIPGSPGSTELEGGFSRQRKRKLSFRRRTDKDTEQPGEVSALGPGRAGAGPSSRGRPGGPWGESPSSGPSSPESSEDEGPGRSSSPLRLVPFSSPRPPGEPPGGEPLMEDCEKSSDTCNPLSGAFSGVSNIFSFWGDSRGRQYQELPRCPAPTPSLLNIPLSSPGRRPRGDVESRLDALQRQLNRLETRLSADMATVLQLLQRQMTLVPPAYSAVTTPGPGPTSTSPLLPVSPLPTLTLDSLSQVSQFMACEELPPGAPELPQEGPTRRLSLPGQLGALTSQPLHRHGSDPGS

Row | Ki [2] | IC50 [3, 6] | EC50 [4, 7] | IC50 ([3]; read-out: Prolif BaF3 PIM1 (IC50), BaF3 PIM1 cells, incubated overnight, CELL TITER GLO) | EC50 ([4]; MM1.S cells, 72 hours, CELL TITER GLO) | Structure (SMILES) | IC20 at 5 min [1] | IC50 [1] | IC50 [5, 8] | EC50 ([4]; Homo sapiens, MM1.S, 72 h) | IC50 ([5]; BaF3, read-out: Prolif BaF3 IL3 (IC50))
1 | 0.03 nM | 100 nM | 2400 nM |  |  | COc1ccc(F)c(-c2nc(C(=O)Nc3cnn(C)c3[C@@H]3CC[C@@H](N)[C@H](OC)CO3)cs2)c1F [Example 368, N-(5-((2S,5R,6S)-5-amino-6-methoxyoxepan-2-yl)-1-methyl-1H-pyrazol-4-yl)-2-(2,6-difluoro-3-methoxyphenyl)thiazole-4-carboxamide] |  |  | 1900 nM |  | 
2 | 0.039 nM | 208 nM | 1100 nM |  |  | Cn1ncc(NC(=O)c2csc(-c3c(F)cc(F)cc3F)n2)c1[C@@H]1CC[C@@H](N)[C@H](F)CO1 [Example 364, N-(5-((2S,5R,6S)-5-amino-6-fluorooxepan-2-yl)-1-methyl-1H-pyrazol-4-yl)-2-(2,4,6-trifluorophenyl)thiazole-4-carboxamide] |  |  | 20200 nM |  | 
3 | 0.031 nM | 68.6 nM | 4200 nM |  |  | Cn1ncc(NC(=O)c2csc(-c3c(F)ccc(C(F)F)c3F)n2)c1[C@@H]1CC[C@@H](N)[C@H](F)CO1 [Example 377, N-[5-[(2S,5R,6S)-5-amino-6-fluoro-oxepan-2-yl]-1-methyl-pyrazol-4-yl]-2-[3-(difluoromethyl)-2,6-difluoro-phenyl]thiazole-4-carboxamide] |  |  | 9900 nM |  | 
4 | 0.129 nM | 980 nM | 2900 nM |  |  | Cn1ncc(NC(=O)c2csc(-c3cc[nH]n3)n2)c1[C@@H]1CC[C@@H](N)[C@H](F)CO1 [Example 379, N-[5-[(2S,5R,6S)-5-amino-6-fluoro-oxepan-2-yl]-1-methyl-pyrazol-4-yl]-2-(1H-pyrazol-3-yl)thiazole-4-carboxamide] |  |  | > 25000 nM |  | 
5 | 0.2 nM | 118 nM | 1200 nM |  |  | CN(C)c1ccc(-c2nc(C(=O)Nc3cnn(C)c3[C@@H]3CC[C@@H](N)[C@H](F)CO3)cs2)cn1 [Example 385, N-[5-[(2S,5R,6S)-5-amino-6-fluoro-oxepan-2-yl]-1-methyl-pyrazol-4-yl]-2-[6-(dimethylamino)-3-pyridyl]thiazole-4-carboxamide] |  |  | 12000 nM |  | 
6 | 0.382 nM | 675 nM | 1800 nM |  |  | Cc1sc(-c2c(F)cccc2F)nc1C(=O)Nc1cnn(C)c1[C@@H]1CC[C@@H](N)[C@H](F)CO1 [Example 370, N-[5-[(2S,5R,6S)-5-amino-6-fluoro-oxepan-2-yl]-1-methyl-pyrazol-4-yl]-2-(2,6-difluorophenyl)-5-methyl-thiazole-4-carboxamide] |  |  | 6400 nM |  | 

The next lines start with the molecule.

Row | Structure (SMILES) | Ki [2] | IC50 [3, 6] | EC50 [4, 7] | IC50 ([3]; read-out: Prolif BaF3 PIM1 (IC50), BaF3 PIM1 cells, incubated overnight, CELL TITER GLO) | EC50 ([4]; MM1.S cells, 72 hours, CELL TITER GLO) | IC20 at 5 min [1] | IC50 [1] | IC50 [5, 8] | EC50 ([4]; Homo sapiens, MM1.S, 72 h) | IC50 ([5]; BaF3, read-out: Prolif BaF3 IL3 (IC50))
7 | Cn1ncc(NC(=O)c2nc(-c3c(F)cccc3F)sc2N)c1N1CC[C@@H](N)[C@H](F)CC1 [No. 139 of US 2013/0079321, 5-amino-N-(5-((4R,5R)-4-amino-5-fluoroazepan-1-yl)-1-methyl-1H-pyrazol-4-yl)-2-(2,6-difluorophenyl)thiazole-4-carboxamide, reference compound] |  |  |  |  |  | 700 nM |  |  |  | 
8 | Cn1ncc(NC(=O)c2nc(-c3c(F)cccc3F)sc2N)c1[C@@H]1CC[C@@H](N)[C@H](F)CO1 [Example 177, 5-Amino-N-[5-[(2S,5R,6S)-5-amino-6-fluoro-oxepan-2-yl]-1-methyl-pyrazol-4-yl]-2-(2,6-difluorophenyl)thiazole-4-carboxamide] | 0.00342 nM |  |  |  |  | 3900 nM | 16000 nM |  |  | 
9 | Cn1ncc(NC(=O)c2nc(-c3ccccc3F)sc2N)c1[C@@H]1CC[C@@H](N)[C@H](F)CO1 [Example 317, 5-amino-N-(5-((2S,5R,6S)-5-amino-6-fluorooxepan-2-yl)-1-methyl-1H-pyrazol-4-yl)-2-(2-fluorophenyl)thiazole-4-carboxamide] | 0.00509 nM | 15.2 nM | 34.5 nM |  |  |  |  | 7900 nM |  | 
10 | Cn1ncc(NC(=O)c2csc(-c3c(F)cccc3F)n2)c1[C@@H]1CC[C@@H](N)[C@@H](F)CO1 [Example 319, N-(5-((2S,5R,6R)-5-amino-6-fluorooxepan-2-yl)-1-methyl-1H-pyrazol-4-yl)-2-(2,6-difluorophenyl)thiazole-4-carboxamide] | 0.038 nM | 129 nM | 875 nM |  |  |  |  | 7800 nM |  | 
11 | Cn1ncc(NC(=O)c2csc(-c3c(F)ccc(S(C)(=O)=O)c3F)n2)c1[C@@H]1CC[C@@H](N)[C@H](F)CO1 [Example 360, N-[5-[(2S,5R,6S)-5-amino-6-fluoro-oxepan-2-yl]-1-methyl-pyrazol-4-yl]-2-(2,6-difluoro-3-methylsulfonyl-phenyl)thiazole-4-carboxamide] | 1.85 nM | 15200 nM | 9400 nM |  |  |  |  | 16500 nM |  | 
12 | COC1(c2cc(F)c(-c3nc(C(=O)Nc4cnn(C)c4[C@@H]4CC[C@@H](N)[C@H](F)CO4)cs3)c(F)c2)COC1 [Example 339, N-(5-((2S,5R,6S)-5-amino-6-fluorooxepan-2-yl)-1-methyl-1H-pyrazol-4-yl)-2-(2,6-difluoro-4-(3-methoxyoxetan-3-yl)phenyl)thiazole-4-carboxamide] | 0.014 nM | 52.2 nM | 1900 nM |  |  |  |  | > 25000 nM |  | 
13 | Cn1ncc(NC(=O)c2nc(-c3c(F)cccc3F)sc2N)c1C12CCC(O)C(CC1)O2 (single isomer, unassigned) [Example 109, 5-amino-2-(2,6-difluorophenyl)-N-[5-(2-hydroxy-8-oxabicyclo[3.2.1]octan-5-yl)-1-methyl-pyrazol-4-yl]thiazole-4-carboxamide] | 0.034 nM |  |  | 115 nM | 9200 nM |  |  | 8300 nM |  | 
14 | CO[C@@H]1COC(c2c(NC(=O)c3nc(-c4c(F)cccc4F)sc3N)cnn2C)CC[C@H]1N (stereo partly drawn) [Example 126, 5-amino-N-(5-((5R,6S)-5-amino-6-methoxyoxepan-2-yl)-1-methyl-1H-pyrazol-4-yl)-2-(2,6-difluorophenyl)thiazole-4-carboxamide] | 0.026 nM | 25.2 nM |  |  |  |  |  |  | 21.7 nM | 25000 nM
15 | C[C@@H]1C[C@@H](N)CC[C@H](c2c(NC(=O)c3nc(-c4c(F)cccc4F)sc3N)cnn2C)O1 [Example 121, 5-amino-N-(5-((2R,5S,7R)-5-amino-7-methyloxepan-2-yl)-1-methyl-1H-pyrazol-4-yl)-2-(2,6-difluorophenyl)thiazole-4-carboxamide] | 0.003 nM | 13.6 nM | 11.9 nM |  |  |  |  | 3500 nM |  | 
16 | CO[C@H]1CO[C@H](c2c(NC(=O)c3nc(-c4c(F)cccc4F)sc3N)cnn2C)CC[C@H]1N [Example 154, 5-Amino-N-[5-[(2S,5R,6R)-5-amino-6-methoxy-oxepan-2-yl]-1-methyl-pyrazol-4-yl]-2-(2,6-difluorophenyl)thiazole-4-carboxamide] | 0.008 nM |  |  |  |  | 1600 nM | 9100 nM |  |  | 
17 | Cn1ncc(NC(=O)c2nc(-c3ccccc3)sc2N)c1[C@@H]1CC[C@@H](N)[C@H](F)CO1 [Example 320, 5-amino-N-(5-((2S,5R,6S)-5-amino-6-fluorooxepan-2-yl)-1-methyl-1H-pyrazol-4-yl)-2-phenylthiazole-4-carboxamide] | 0.036 nM | 24.4 nM | 187 nM |  |  |  |  | > 25000 nM |  | 
18 | Cn1ncc(NC(=O)c2nc(-c3c(F)cccc3F)sc2N)c1C1CC[C@@H](N)[C@@H](F)CO1 (stereo partly drawn) [Example 129, 5-amino-N-(5-((5R,6R)-5-amino-6-fluorooxepan-2-yl)-1-methyl-1H-pyrazol-4-yl)-2-(2,6-difluorophenyl)thiazole-4-carboxamide] | 0.006 nM | 24.7 nM | 109 nM |  |  |  |  | 6900 nM |  | 
19 | Cn1ncc(NC(=O)c2nc(-c3c(F)cccc3F)sc2N)c1[C@H]1CC[C@@H](N)C(F)CO1 (stereo in doubt) [Example 148, 5-Amino-N-[5-[5-amino-6-fluoro-oxepan-2-yl]-1-methyl-pyrazol-4-yl]-2-(2,6-difluorophenyl)thiazole-4-carboxamide] | 0.079 nM | 1600 nM | 7700 nM |  |  |  |  | 25000 nM |  | 

Reference: patent US9328106B2, “Cyclic ether pyrazol-4-yl-heterocyclyl-carboxamide compounds and methods of use” (Genentech, Inc., priority 2012, dated 2016)
